Results from ChEMBL document CHEMBL5620360, “Design, synthesis and biological evaluation of 4-(4-aminophenoxy)picolinamide derivatives as potential antitumor agents” (Eur J Med Chem, 2023).

Key:
[1] = test system: A549; test: cells; details: Homo sapiens, A549, 72 h
[2] = test system: MCF7; test: cells; details: Homo sapiens, MCF7, 72 h
[3] = test system: HeLa; test: Antiproliferative activity against human HeLa cells assessed as reduction in cell viability incubated for 72 hrs by MTT assay; format: functional, cell-based
[4] = test system: A549; test: Induction of apoptosis in human A549 cells assessed as late apoptotic cells at 5 uM measured after 24 hrs by AnnexinV-FITC/PI staining based flow cytometry (reference value: 1.47%); format: functional
[5] = test system: A549; test: Induction of cell cycle arrest in human A549 cells assessed as accumulation of cells at G1 phase at 5 uM incubated for 24 hrs by propidium iodide staining based flow cytometry (reference value: 54.46%); format: functional
[6] = test system: A549; test: Induction of apoptosis in human A549 cells assessed as viable cells at 5 uM measured after 24 hrs by AnnexinV-FITC/PI staining based flow cytometry (reference value: 93.25%); format: functional; details: read-out: Activity
[7] = test system: A549; test: Induction of apoptosis in human A549 cells assessed as necrotic cells at 5 uM measured after 24 hrs by AnnexinV-FITC/PI staining based flow cytometry (reference value: 4.01%); format: functional
[8] = test system: A549; test: Induction of apoptosis in human A549 cells assessed as early apoptotic cells at 5 uM measured after 24 hrs by AnnexinV-FITC/PI staining based flow cytometry (reference value: 1.26%); format: functional
[9] = test system: A549; test: Induction of cell cycle arrest in human A549 cells assessed as accumulation of cells at G2 phase at 5 uM incubated for 24 hrs by propidium iodide staining based flow cytometry (reference value: 7.36%); format: functional
[10] = test system: A549; test: Induction of cell cycle arrest in human A549 cells assessed as accumulation of cells at S phase at 5 uM incubated for 24 hrs by propidium iodide staining based flow cytometry (reference value: 38.18%); format: functional
[11] = test system: A549
[12] = test system: MCF7
[13] = Homo sapiens, HeLa, 72 h, read-out: IC50

| IC50 [1] | IC50 [2] | IC50 [3, 13] | SMILES | also measured |
| --- | --- | --- | --- | --- |
| 19.3 µM | 30.8 µM | 17.4 µM | COc1ccc(-n2cc(C(=O)Nc3ccc(Oc4ccnc(C(=O)NCCCN5CCOCC5)c4)c(F)c3)c(=O)c3cccnc32)cc1 | – |
| 16.2 µM | 29.1 µM | 28.3 µM | COc1ccc(-n2cc(C(=O)Nc3ccc(Oc4ccnc(C(=O)NCCCN5CCOCC5)c4)cc3)c(=O)c3cccnc32)cc1 | – |
| 7.88 µM | 43 µM | 39 µM | O=C(NCCCN1CCOCC1)c1cc(Oc2ccc(NC(=O)c3cn(-c4ccc(F)c(Cl)c4)c4ncccc4c3=O)cc2)ccn1 | – |
| 3.87 µM | 39.3 µM | 29.4 µM | O=C(NCCCN1CCOCC1)c1cc(Oc2ccc(NC(=O)c3cn(-c4ccc(Cl)cc4)c4ncccc4c3=O)cc2F)ccn1 | – |
| 0.58 µM | 4.96 µM | 1.57 µM | O=C(NCCCN1CCOCC1)c1cc(Oc2ccc(NC(=O)c3cn(-c4ccc(F)cc4)c4ncccc4c3=O)cc2F)ccn1 | – |
| 79.3 µM | 82.1 µM | 75.4 µM | O=C(Nc1ccc(Oc2ccnc(C(=O)N3CCCC3)c2)c(F)c1)c1cn(-c2ccc(Cl)cc2)c2ncccc2c1=O | – |
| 9.57 µM | 23.7 µM | 7.02 µM | O=C(NCCCN1CCOCC1)c1cc(Oc2ccc(NC(=O)c3cn(-c4ccccc4)c4ncccc4c3=O)cc2F)ccn1 | – |
| 47.6 µM | 38.1 µM | 41.2 µM | O=C(Nc1ccc(Oc2ccnc(C(=O)N3CCCC3)c2)cc1)c1cn(-c2ccccc2)c2ncccc2c1=O | – |
| 67.2 µM | 74 µM | 75 µM | CCCNC(=O)c1cc(Oc2ccc(NC(=O)c3cn(-c4ccccc4)c4ncccc4c3=O)cc2F)ccn1 | – |
| 0.62 µM | 3.15 µM | 1.17 µM | COc1cc2nccc(Oc3ccc(NC(=O)C4(C(=O)Nc5ccc(F)cc5)CC4)cc3)c2cc1OC [CABOZANTINIB] | Activity [4]: 4.25%; Activity [5]: 56.19%; viability at 5 µM [6]: 88.2%; Activity [7]: 5.19%; Activity [8]: 2.33%; Activity [9]: 11.66%; Activity [10]: 32.15% |
| 51.1 µM | 71.3 µM | 67.5 µM | CCCNC(=O)c1cc(Oc2ccc(NC(=O)c3cn(-c4ccc(OC)cc4)c4ncccc4c3=O)cc2F)ccn1 | – |
| 0.74 µM | 11 µM | 9.76 µM | O=C(NCCCN1CCOCC1)c1cc(Oc2ccc(NC(=O)c3cn(-c4ccc(Br)cc4)c4ncccc4c3=O)cc2)ccn1 | – |
| 1.62 µM | 2.98 µM | 2.13 µM | O=C(Nc1ccc(Oc2ccnc(C(=O)N3CCCC3)c2)c(F)c1)c1cn(-c2ccc(F)cc2)c2ncccc2c1=O | – |
| 57.1 µM | 69.8 µM | 67 µM | O=C(Nc1ccc(Oc2ccnc(C(=O)N3CCCC3)c2)cc1)c1cn(-c2ccc(Cl)cc2)c2ncccc2c1=O | – |
| 19.3 µM | 40.7 µM | 23.8 µM | CCCNC(=O)c1cc(Oc2ccc(NC(=O)c3cn(-c4ccc(F)cc4)c4ncccc4c3=O)cc2F)ccn1 | – |
| 1.18 µM | 3.51 µM | 1.85 µM | O=C(NCCCN1CCOCC1)c1cc(Oc2ccc(NC(=O)c3cn(-c4ccc(Br)cc4F)c4ncccc4c3=O)cc2F)ccn1 | – |
| – | 62.1 µM | 75.5 µM | O=C(Nc1ccc(Oc2ccnc(C(=O)N3CCCC3)c2)cc1)c1cn(-c2ccc(Br)cc2)c2ncccc2c1=O | IC50 [11]: Not Active |
| 9.27 µM | 0.83 µM | 7.96 µM | O=C(NCCCN1CCOCC1)c1cc(Oc2ccc(NC(=O)c3cn(-c4ccc(Br)cc4F)c4ncccc4c3=O)cc2)ccn1 | – |

| IC50 [1] | IC50 [2] | IC50 [3, 13] | SMILES | also measured |
| --- | --- | --- | --- | --- |
| 18.7 µM | 17.3 µM | 41.8 µM | CCCNC(=O)c1cc(Oc2ccc(NC(=O)c3cn(-c4ccc(Br)cc4F)c4ncccc4c3=O)cc2F)ccn1 | – |
| 0.98 µM | 2.96 µM | 1.28 µM | O=C(Nc1ccc(Oc2ccnc(C(=O)N3CCCC3)c2)c(F)c1)c1cn(-c2ccc(F)c(Cl)c2)c2ncccc2c1=O | – |
| 2.91 µM | 4.87 µM | 4.57 µM | O=C(NCCCN1CCOCC1)c1cc(Oc2ccc(NC(=O)c3cn(-c4ccc(Br)cc4)c4ncccc4c3=O)cc2F)ccn1 | – |
| – | 44.3 µM | 42.3 µM | O=C(Nc1ccc(Oc2ccnc(C(=O)N3CCCC3)c2)c(F)c1)c1cn(-c2ccc(Br)cc2)c2ncccc2c1=O | IC50 [11]: Not Active |
| 3.47 µM | 15 µM | 5.28 µM | O=C(Nc1ccc(Oc2ccnc(C(=O)N3CCCC3)c2)cc1)c1cn(-c2ccc(F)cc2)c2ncccc2c1=O | – |
| 33.6 µM | 62.1 µM | 57 µM | COc1ccc(-n2cc(C(=O)Nc3ccc(Oc4ccnc(C(=O)N5CCCC5)c4)cc3)c(=O)c3cccnc32)cc1 | – |
| 34.8 µM | 39 µM | 43.6 µM | CCCNC(=O)c1cc(Oc2ccc(NC(=O)c3cn(-c4ccc(F)c(Cl)c4)c4ncccc4c3=O)cc2F)ccn1 | – |
| – | – | 50.8 µM | O=C(Nc1ccc(Oc2ccnc(C(=O)N3CCCC3)c2)c(F)c1)c1cn(-c2ccc(Br)cc2F)c2ncccc2c1=O | IC50 [11]: Not Active; IC50 [12]: Not Active |
| 56.8 µM | 78.5 µM | – | O=C(Nc1ccc(Oc2ccnc(C(=O)N3CCCC3)c2)cc1)c1cn(-c2ccc(Br)cc2F)c2ncccc2c1=O | IC50 ([3]; hela): Not Active |
| – | 77 µM | – | COc1ccc(-n2cc(C(=O)Nc3ccc(Oc4ccnc(C(=O)N5CCCC5)c4)c(F)c3)c(=O)c3cccnc32)cc1 | IC50 [11]: Not Active; IC50 ([3]; hela): Not Active |
| 8.01 µM | 10.4 µM | 35.9 µM | CCCNC(=O)c1cc(Oc2ccc(NC(=O)c3cn(-c4ccc(Br)cc4)c4ncccc4c3=O)cc2F)ccn1 | – |
| – | – | 80.5 µM | CCCNC(=O)c1cc(Oc2ccc(NC(=O)c3cn(-c4ccc(Br)cc4F)c4ncccc4c3=O)cc2)ccn1 | IC50 [11]: Not Active; IC50 [12]: Not Active |
| 0.96 µM | 2.86 µM | 2.01 µM | CCCNC(=O)c1cc(Oc2ccc(NC(=O)c3cn(-c4ccc(OC)cc4)c4ncccc4c3=O)cc2)ccn1 | – |
| – | 69.4 µM | 60.5 µM | O=C(Nc1ccc(Oc2ccnc(C(=O)N3CCCC3)c2)c(F)c1)c1cn(-c2ccccc2)c2ncccc2c1=O | IC50 [11]: Not Active |
| 45.1 µM | 52.9 µM | 65.3 µM | CCCNC(=O)c1cc(Oc2ccc(NC(=O)c3cn(-c4ccc(Cl)cc4)c4ncccc4c3=O)cc2F)ccn1 | – |
| – | 73.9 µM | 65.9 µM | CCCNC(=O)c1cc(Oc2ccc(NC(=O)c3cn(-c4ccc(Br)cc4)c4ncccc4c3=O)cc2)ccn1 | IC50 [11]: Not Active |
| 4.18 µM | 5.75 µM | 7.92 µM | O=C(NCCCN1CCOCC1)c1cc(Oc2ccc(NC(=O)c3cn(-c4ccc(F)cc4)c4ncccc4c3=O)cc2)ccn1 | – |
| 0.89 µM | 3.01 µM | 1.09 µM | CCCNC(=O)c1cc(Oc2ccc(NC(=O)c3cn(-c4ccc(F)cc4)c4ncccc4c3=O)cc2)ccn1 | – |
